Measurements taken from PMC6520365, “Structural and functional characterization of the PDZ domain of the human phosphatase PTPN3 and its interaction with the human papillomavirus E6 oncoprotein” (Scientific Reports, 2019).
Ends that are not written are not given here.

Molecular target: T1, PTPN3-PDZ (Homo sapiens, UniProt P26045)
T1 construct: GST (followed by a TEV cleavage site) (N, cleaved yes); made in house; host or cells: E. coli BL21 Star (DE3)
T1 sequence (P26045 510-582 limits assumed): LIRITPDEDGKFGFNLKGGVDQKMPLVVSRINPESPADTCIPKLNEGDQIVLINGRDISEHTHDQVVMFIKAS
Assay: NMR titration (1H,15N HSQC chemical shift perturbation) of PBM peptide affinity for PTPN3-PDZ
Assay type: binding
Method: The affinities of HPV16E6 PBM, HPV18E6 PBM, p38γ PBM and HBVc PBM for PTPN3-PDZ were measured by NMR titration. We followed ^1H, ^15N chemical shift perturbations of PTPN3-PDZ signals in the ^1H-^15N HSQC spectra as a function of increasing concentrations of the PBM peptide to determine the dissociation constant (KD) (Fig. S1). […] The KD values are all in the same tenth-of-micromolar range for the viral PBMs and are close to the one of the cellular partner p38γ. […]
Briefly, the unlabeled peptides (stock solutions ranging from 2.8 to 5.7 mM) at pH 7.5 were added stepwise in a sample initially containing 240–260 μL of ^15N-labeled PTPN3-PDZ at a concentration of 95 or 149 μM. A series of ^1H, ^15N HSQC spectra was recorded for the different titration points. Chemical shift changes were calculated using the free PTPN3-PDZ signals as a reference. Chemical shift differences in the cross-peaks by titration were calculated using the relationship: Δδ = ((ΔδHN)^2 + (0.15 × ΔδN)^2)^0.5 where ΔδHN and ΔδN are changes in the ^1H and ^15N chemical shifts in ppm, respectively. […]

For RQERLQRRETQV [HPV18E6 PBM], which Kd is on record?
Its Kd is 37 ± 20 µM.
